13 compounds from patent US20040048866A1 (priority 2002, published 2004) can be followed below.

The target of data set [1] is T1, α1 and β1 subunits of guanylate cyclase (sGC), expressed in Sf9 cells (Homo sapiens, UniProt Q02108+Q02153).
T1 construct: made in house; host or cells: Sf9 insect cells (baculovirus co-infection); high-speed supernatant used unpurified
T1 sequence (Q02108 1-690): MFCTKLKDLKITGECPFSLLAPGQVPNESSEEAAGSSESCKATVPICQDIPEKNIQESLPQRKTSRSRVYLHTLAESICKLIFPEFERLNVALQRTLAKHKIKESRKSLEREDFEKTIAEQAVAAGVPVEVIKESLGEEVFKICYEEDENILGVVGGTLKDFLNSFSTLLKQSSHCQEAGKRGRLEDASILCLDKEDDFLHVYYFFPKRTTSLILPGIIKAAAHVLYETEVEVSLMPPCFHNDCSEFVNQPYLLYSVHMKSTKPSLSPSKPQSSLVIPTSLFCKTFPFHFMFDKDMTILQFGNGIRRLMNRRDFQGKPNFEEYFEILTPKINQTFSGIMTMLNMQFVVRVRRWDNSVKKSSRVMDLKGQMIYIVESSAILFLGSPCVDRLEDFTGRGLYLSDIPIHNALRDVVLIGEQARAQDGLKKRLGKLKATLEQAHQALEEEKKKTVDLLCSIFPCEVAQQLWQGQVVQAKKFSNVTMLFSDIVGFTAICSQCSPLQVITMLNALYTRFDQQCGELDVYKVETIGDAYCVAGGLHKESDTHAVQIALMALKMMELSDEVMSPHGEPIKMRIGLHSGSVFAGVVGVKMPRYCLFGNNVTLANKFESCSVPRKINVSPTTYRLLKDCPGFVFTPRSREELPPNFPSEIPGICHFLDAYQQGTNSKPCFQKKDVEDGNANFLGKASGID
T1 sequence (Q02153 1-619): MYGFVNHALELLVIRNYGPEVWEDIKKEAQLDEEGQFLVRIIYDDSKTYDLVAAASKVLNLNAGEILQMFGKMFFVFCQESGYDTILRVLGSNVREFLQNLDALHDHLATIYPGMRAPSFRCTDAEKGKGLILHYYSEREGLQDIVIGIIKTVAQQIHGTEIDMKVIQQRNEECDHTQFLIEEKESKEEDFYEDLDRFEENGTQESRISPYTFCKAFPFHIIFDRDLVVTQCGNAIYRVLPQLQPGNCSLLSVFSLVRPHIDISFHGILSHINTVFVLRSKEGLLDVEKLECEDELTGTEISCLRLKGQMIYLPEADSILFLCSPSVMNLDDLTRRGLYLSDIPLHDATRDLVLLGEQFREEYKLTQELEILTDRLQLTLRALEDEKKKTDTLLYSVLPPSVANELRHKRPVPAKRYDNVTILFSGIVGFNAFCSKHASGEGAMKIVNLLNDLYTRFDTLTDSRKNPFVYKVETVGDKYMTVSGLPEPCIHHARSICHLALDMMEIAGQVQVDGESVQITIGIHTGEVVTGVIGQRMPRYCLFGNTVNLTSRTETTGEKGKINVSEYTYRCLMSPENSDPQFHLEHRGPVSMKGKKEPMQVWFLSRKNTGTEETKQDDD
Description: Guanylate Cyclase Assay (formation of cyclic GMP from GTP). It is filed as biochemical. As to conditions: for Mean activation at 100 μM: (activity at 100 μM with 1 μM SNP − activity at 100 μM)/(activity of SNP at 1 μM − basal activity of sGC); for Mean efficacy at 100 μM with 1 μM of SNP, [% of YC-1]: compound at 100 μM with 1 μM sodium nitroprusside (SNP), normalized to 100 μM YC-1 (without SNP) as 100%; for Emax at 100 µM: compound at 100 μM without SNP, normalized to activity of 100 μM YC-1 (without SNP) as 100%, read-out: Mean basal efficacy at 100 μM, [% of YC-1]. As to the method:
Sf9 cells were cultured in Sf-90011 medium supplemented with 10% (v/v) fetal calf serum at 28° C. to give a count of 6×10^5 cells/ml. The cells were then infected with a mixture of the virus stocks for the α1 and β1 subunits of guanylate cyclase at a multiplicity of infection of 0.1 pfu/cell. The cells were harvested 72 hours after infection and were pelleted by centrifugation. The resulting cell pellets were homogenized with Polytron homogenizer in 3 volumes of 20 mM Tris-HCl (pH 7.6) containing 1 mM EDTA, 5 mM dithiothreitol, 90 mM NaCl, 10% glycerol, and protease inhibitors mix (Roche Molecular Biochemicals). The homogenate was centrifuged at 50,000×g for 60 minutes and the supernatant was aliquotted and stored at −80° C.
Compounds of the present invention were dissolved in DMSO to make 100 mM and saved as stocks at −20° C. When compounds were tested, 10-fold concentrated solutions with 10% DMSO were prepared. 10 μl of 10-fold concentrated compound solutions were added to the reaction mixture total of 100 μl.
Guanylate cyclase activity was measured by the formation of cyclic GMP from GTP in a total volume of 100 μl. Guanylate cyclase-expressed Sf9 cell high-speed supernatant (Sf9 high-speed sup) was used as an enzyme source for the assay. The reaction mixture containing 0.1 μl enzyme of Sf9 high-speed sup, compound solution, 50 mM Tris-HCl (pH 7.6), 4 mM MgCl2, 0.5 mM IBMX, 15 mM creatine phosphate, 20 μg creatine phosphokinase, 0.1% BSA and 1 mM GTP were incubated at 37° C. for 15 minutes. After the reaction, 0.9 ml of 50 mM sodium acetate buffer (pH 5.8) was added followed by boiling for 3 minutes to stop the reaction. The solution was centrifuged at 3000 rpm for 15 minutes at room temperature and cyclic GMP in 20 μl of the resulting supernatant was measured according to the protocol of Amersham cyclic GMP enzymeimmunoassay system (Amersham, RPN 226).
Compounds of the present invention were tested at 100 μM with and without 1 μM of sodium nitroprusside (SNP). YC-1 was included as a standard for each assay. The data was normalized with the activity of 100 μM YC-1 (without SNP) as 100%. Mean basal efficacy, in Table 1, was expressed as a percentage of 100 μM YC-1 (without SNP).
The mean activation, in Table 1, was calculated based on the formula: (activity of compound of the present invention at 100 μM with 1 μM SNP)−(activity of compound of on at 100 μM)/(activity of SNP at 1 μM)−(basal activity of sGC).

On to `OCc1ccc(Cn2nc(OCc3ccccc3)c3ccccc32)o1` [Example 29, (5-{[3-(benzyloxy)-1H-indazol-1-yl]methyl}-2-furyl)methanol], for which the melting point – broadly, the temperature of the solid-liquid transition – lay in the range of 80 to 82 °C. Also, in data set [1], the “Mean activation at 100 μM” value was 1.4; the “Mean efficacy at 100 μM with 1 μM of SNP, [% of YC-1]” value (from here on “Mean efficacy at 100 μM … [% of YC-1]”) is listed as 11 % of YC-1; the Emax at 100 µM amounted to 1%.
The like results for `Clc1ccc(NN=Cc2ccc(Oc3nn(Cc4ccccc4)c4ccccc34)o2)nn1` [Example 3, 5-[(1-benzyl-1H-indazol-3-yl)oxy]-2-furaldehyde (6-chloro-3-pyridazinyl)hydrazone] were, in that order, 200 to 202 °C, 1.7, 17 % of YC-1 and 0%.
On the same counts, the results for `OCc1cccc(Oc2nn(Cc3ccccc3)c3ccccc23)n1` [Example 2, {6-[(1-benzyl-1H-indazol-3-yl)oxy]-2-pyridinyl}methanol] are 156 to 158 °C, 1.8, 20 % of YC-1 and 0%.
Consider `CCCC(CO)NC(=O)c1ccc(Oc2nn(Cc3ccccc3)c3ccccc23)o1` (stereo not drawn) [Example 7, 5-[(1-benzyl-1H-indazol-3-yl)oxy]-N-[1-(hydroxymethyl)butyl]-2-furamide], for which, in data set [1], the “Mean activation at 100 μM” value worked out at 3.1; the “Mean efficacy at 100 μM … [% of YC-1]” value is 25 % of YC-1; the Emax at 100 µM came to 3%.
For `CC(CCCC(C)(C)O)NC(=O)c1ccc(Oc2nn(Cc3ccccc3)c3ccccc23)o1` (stereo not drawn) [Example 8, 5-[(1-benzyl-1H-indazol-3-yl)oxy]-N-(5-hydroxy-1,5-dimethylhexyl)-2-furamide], in data set [1], the “Mean activation at 100 μM” value was 1.5; the “Mean efficacy at 100 μM … [% of YC-1]” value was 9 % of YC-1; the Emax at 100 µM was found to be 0%.
For `O=[N+]([O-])c1ccc(Oc2nn(Cc3ccccc3F)c3ncccc23)nc1` [Example 34, 1-(2-fluorobenzyl)-3-[(5-nitro-2-pyridinyl)oxy]-1H-pyrazolo[3,4-b]pyridine], the melting point fell in the range of 111 to 113 °C. Further, in data set [1], the “Mean activation at 100 μM” value came out at 1.0; the “Mean efficacy at 100 μM … [% of YC-1]” value is on record as 7 % of YC-1; the Emax at 100 µM is 4%.
Take `C(=Cc1ccccc1)Cn1nc(OCc2ccccc2)c2ccccc21` [Example 27, 3-(benzyloxy)-1-[3-phenyl-2-propenyl]-1H-indazole]: in data set [1], the “Mean activation at 100 μM” value is given as 1.7; the “Mean efficacy at 100 μM … [% of YC-1]” value is reported as 18 % of YC-1; the Emax at 100 µM was -2%.
As for `O=C(NC1CCC(O)CC1)c1ccccc1Oc1nn(Cc2ccccc2)c2ccccc12` (stereo not drawn) [Example 19, 2-[(1-benzyl-1H-indazol-3-yl)oxy]-N-(4-hydroxycyclohexyl)benzamide], in data set [1], the “Mean activation at 100 μM” value came to 1.9; the “Mean efficacy at 100 μM … [% of YC-1]” value is listed as 12 % of YC-1; the Emax at 100 µM came out at 3%.
As to `O=C(O)c1ccc(Oc2nn(Cc3ccccc3)c3ccccc23)o1` [Example 4, 5-[(1-benzyl-1H-indazol-3-yl)oxy]-2-furoic acid], the melting point was 162 to 165 °C. Also, in data set [1], the “Mean activation at 100 μM” value is given as 1.5; the “Mean efficacy at 100 μM … [% of YC-1]” value was 26 % of YC-1; the Emax at 100 µM came to 0%.
As to `NC(=O)c1cccnc1Oc1nn(Cc2ccccc2)c2ccccc12` [Example 14, 2-[(1-benzyl-1H-indazol-3-yl)oxy]nicotinamide], in data set [1], the “Mean activation at 100 μM” value was found to be 1.8; the “Mean efficacy at 100 μM … [% of YC-1]” value was 23 % of YC-1; the Emax at 100 µM is 0%.
On the same counts, the results for `O=C(N[C@H]1Cc2ccccc2[C@H]1O)c1ccccc1Oc1nn(Cc2ccccc2)c2ccccc12` [Example 20, 2-[(1-benzyl-1H-indazol-3-yl)oxy]-N-[(1R,2S)-1-hydroxy-2,3-dihydro-1H-inden-2-yl]benzamide] are 1.5, 11 % of YC-1 and 6%.
As to `O=[N+]([O-])c1cccnc1Oc1nn(Cc2ccccc2F)c2ncccc12` [Example 35, 1-(2-fluorobenzyl)-3-[(3-nitro-2-pyridinyl)oxy]-1H-pyrazolo[3,4-b]pyridine], the melting point was 115 to 117 °C. In data set [1], the “Mean activation at 100 μM” value is on record as 1.9; the “Mean efficacy at 100 μM … [% of YC-1]” value is reported as 28.1 % of YC-1; the Emax at 100 µM came to 7.1%.
On to `O=C(NCC1CCCCC1O)c1ccccc1Oc1nn(Cc2ccccc2)c2ccccc12` (stereo not drawn) [Example 26, 2-[(1-benzyl-1H-indazol-3-yl)oxy]-N-[(2-hydroxycyclohexyl)methyl]benzamide], for which, in data set [1], the “Mean activation at 100 μM” value is reported as 2.0; the “Mean efficacy at 100 μM … [% of YC-1]” value is 12 % of YC-1; the Emax at 100 µM came out at 1%.
